{"source": "paper PMC5094908", "about": "(Journal of applied toxicology : JAT, 2016)", "key": {"[1]": {"system": "SH-SY5Y, LUHMES, NSC, dSH-SY5Y, dLUHMES, dNSC"}, "[2]": {"system": "Caspase 3/7 activity in SH-SY5Y and dSH-SY5Y cells", "assay": "Caspase-Glo 3/7 luminescence assay, 24 h", "assay_type": "cell-based"}, "[3]": {"system": "SH-SY5Y and dSH-SY5Y cells", "assay": "qPCR of apoptosis-pathway genes after 6 h toxicant treatment", "assay_type": "cell-based, human", "conditions": "for BAG3 expression: both SH-SY5Y and dSH-SY5Y"}, "[4]": {"system": "LUHMES and dLUHMES cells"}, "[5]": {"system": "HEK293, SH-SY5Y, SK-N-SH, or N2a", "conditions": "cited from earlier work"}, "[6]": {"system": "Caspase 3/7 activity in LUHMES and dLUHMES cells", "assay": "Caspase-Glo 3/7 luminescence assay, 24 h", "assay_type": "cell-based, human", "conditions": "dLUHMES, 24 h, threshold […] above control"}, "[7]": {"system": "SH-SY5Y and dSH-SY5Y cells"}, "[8]": {"conditions": "SH-SY5Y and dSH-SY5Y (either cell type), MAP 12.5 µM, DTCM 10 µM, MALG 1.56 µM, MHG 1.56 µM, RSR 10 µM"}, "[9]": {"conditions": "MAP 12.5 µM, DTCM 10 µM, MALG 1.56 µM, MHG 1.56 µM, RSR 10 µM"}, "[10]": {"conditions": "24 h exposure, 0.78 to 100 µM, vs SH-SY5Y/dSH-SY5Y and NSC/dNSC"}, "[11]": {"conditions": "24 h exposure, [ATP], 0.78 to 100 µM"}}, "note": "“Also recorded” adds a separate entry of the source. Structures can show the parent of a compound that is named as a salt. Where two headings read alike, the source gives them in different places.", "data": [{"compound": "CN(C)c1ccc(C(=C2C=CC(=[N+](C)C)C=C2)c2ccccc2)cc1.CN(C)c1ccc(C(=C2C=CC(=[N+](C)C)C=C2)c2ccccc2)cc1.O=C(O)C(=O)O.O=C([O-])C(=O)O.O=C([O-])C(=O)O", "note": "[MALG, Malachite green oxalate]", "values": [{"measurement": "cytotoxic sensitivity of LUHMES, dLUHMES, NSC and dNSC compared with each other", "setting": "[1]", "result": "comparable sensitivity"}, {"measurement": "peak Caspase 3/7 activities, ranking among compounds", "setting": "[2]", "result": "highest activities"}, {"measurement": "BIRC5 gene expression", "setting": "[3]; [8]", "result": "down-regulation"}, {"measurement": "BIRC3 gene expression", "setting": "[3]; SH-SY5Y and dSH-SY5Y (either cell type), MAP 12.5 µM, MALG 1.56 µM, MHG 1.56 µM, RSR 10 µM", "result": "down-regulation"}, {"measurement": "BAG3 expression", "setting": "[3]; [9]", "result": "increased expression"}]}, {"compound": "Cc1c(O)cccc1C(=O)N[C@@H](CSc1ccccc1)[C@H](O)CN1C[C@H]2CCCC[C@H]2C[C@H]1C(=O)NC(C)(C)C", "note": "[NLF, Nelfinavir]", "values": [{"measurement": "cytotoxic sensitivity ([ATP] IC50) of LUHMES and/or dLUHMES relative to the other cell lines", "setting": "[4]", "result": "more sensitive than the other cell lines"}, {"measurement": "In vitro neural selectivity: neural-derived cell lines 10-fold more sensitive (10-fold lower IC50) than the median of the other 9 cell lines", "setting": "[5]", "result": "SH-SY5Y ([Huang et al., 2008], [Xia et al., 2008])"}]}, {"compound": "Sodium dichromate [CR2]", "values": [{"measurement": "In vitro neural selectivity: neural-derived cell lines 10-fold more sensitive (10-fold lower IC50) than the median of the other 9 cell lines", "setting": "[5]", "result": "SH-SY5Y ([Huang et al., 2008], [Xia et al., 2008])"}]}, {"compound": "O=C(O)CCCc1ccc(N(CCCl)CCCl)cc1", "note": "[CLM, Chlorambucil]", "values": [{"measurement": "relative cytotoxic sensitivity of LUHMES versus dLUHMES cells", "setting": "[4]", "result": "LUHMES cells were more sensitive than dLUHMES cells"}, {"measurement": "cytotoxic sensitivity ([ATP] IC50) of LUHMES and/or dLUHMES relative to the other cell lines", "setting": "[4]; [10]", "result": "more sensitive than the other cell lines"}, {"measurement": "peak Caspase 3/7 activities, ranking among compounds", "setting": "[2]", "result": "highest activities"}, {"measurement": "In vitro neural selectivity: neural-derived cell lines 10-fold more sensitive (10-fold lower IC50) than the median of the other 9 cell lines", "setting": "[5]", "result": "selective toxicity to SH-SY5Y cells; also recorded: SH-SY5Y, ([Huang et al., 2008], [Xia et al., 2008])"}, {"measurement": "increase of Caspase 3/7 activity in dLUHMES", "setting": "[6]", "result": "but not dLUHMES"}]}, {"compound": "C=C(C)[C@H]1Cc2c(ccc3c2O[C@@H]2COc4cc(OC)c(OC)cc4[C@@H]2C3=O)O1", "note": "[ROTE, Rotenone]", "values": [{"measurement": "relative cytotoxic sensitivity of LUHMES versus dLUHMES cells", "setting": "[4]", "result": "LUHMES cells were more sensitive than dLUHMES cells"}, {"measurement": "cytotoxic sensitivity ([ATP] IC50) of LUHMES and/or dLUHMES relative to the other cell lines", "setting": "[4]; [10]", "result": "more sensitive than the other cell lines"}, {"measurement": "cytotoxic sensitivity of dSH-SY5Y cells relative to SH-SY5Y cells", "setting": "[7]", "result": "more sensitive"}]}, {"compound": "N#CSCSC#N", "note": "[DTCM, Dithiocyanatomethan]", "values": [{"measurement": "cytotoxic sensitivity ([ATP] IC50) of LUHMES and/or dLUHMES relative to the other cell lines", "setting": "[4]; [10]", "result": "more sensitive than the other cell lines"}, {"measurement": "relative cytotoxic sensitivity of LUHMES versus dLUHMES cells", "setting": "[4]; [11]", "result": "dLUHMES cells were markedly more sensitive than LUHMES cells"}, {"measurement": "BIRC5 gene expression", "setting": "[3]; [8]", "result": "down-regulation"}, {"measurement": "BIRC3 gene expression", "setting": "[3]; SH-SY5Y, DTCM 10 µM", "result": "down-regulation"}, {"measurement": "FAS mRNA", "setting": "[3]; SHSY5Y, DTCM 10 µM", "result": "down-regulated"}, {"measurement": "BAG3 expression", "setting": "[3]; [9]", "result": "increased expression"}, {"measurement": "BIRC3 gene expression", "setting": "[3]; dSH-SY5Y, DTCM 10 µM", "result": "did not respond detectably"}, {"measurement": "FASL mRNA", "setting": "[3]; dSH-SY5Y, DTCM 10 µM", "result": "unchanged"}, {"measurement": "In vitro neural selectivity: neural-derived cell lines 10-fold more sensitive (10-fold lower IC50) than the median of the other 9 cell lines", "setting": "[5]", "result": "SH-SY5Y ([Huang et al., 2008], [Xia et al., 2008])"}, {"measurement": "increase of Caspase 3/7 activity in dLUHMES", "setting": "[6]", "result": "but not dLUHMES"}, {"measurement": "cytotoxic sensitivity of dSH-SY5Y cells relative to SH-SY5Y cells", "setting": "[7]; [11]", "result": "slightly more sensitive"}]}, {"compound": "Ziram", "values": [{"measurement": "In vitro neural selectivity: neural-derived cell lines 10-fold more sensitive (10-fold lower IC50) than the median of the other 9 cell lines", "setting": "[5]", "result": "SH-SY5Y ([Huang et al., 2008], [Xia et al., 2008])"}]}, {"compound": "COc1cccc2c1C(=O)c1c(O)c3c(c(O)c1C2=O)C[C@@](O)(C(C)=O)C[C@@H]3O[C@H]1C[C@H](N)[C@H](O)[C@H](C)O1", "note": "[DAUN, Daunorubicin]", "values": [{"measurement": "peak Caspase 3/7 activities, ranking among compounds", "setting": "[2]", "result": "highest activities"}, {"measurement": "In vitro neural selectivity: neural-derived cell lines 10-fold more sensitive (10-fold lower IC50) than the median of the other 9 cell lines", "setting": "[5]", "result": "HEK293, SH-SY5Y, SK-N- SH, N2a ([Huang et al., 2008], [Xia et al., 2008])"}]}, {"compound": "[CH3][Sn]([CH3])([CH3])[Cl]", "note": "[TMT, Trimethyltin chloride]", "values": [{"measurement": "cytotoxic sensitivity ([ATP] IC50) of LUHMES and/or dLUHMES relative to the other cell lines", "setting": "[4]; [10]", "result": "more sensitive than the other cell lines"}, {"measurement": "relative cytotoxic sensitivity of LUHMES versus dLUHMES cells", "setting": "[4]; [11]", "result": "dLUHMES cells were markedly more sensitive than LUHMES cells"}]}, {"compound": "Cc1ccc2c(c1[N+](=O)[O-])C(=O)c1ccccc1C2=O", "note": "[MNA, 2-Methyl-1-nitroanthraquinone]", "values": [{"measurement": "cytotoxic sensitivity ([ATP] IC50) of LUHMES and/or dLUHMES relative to the other cell lines", "setting": "[4]", "result": "more sensitive than the other cell lines"}, {"measurement": "In vitro neural selectivity: neural-derived cell lines 10-fold more sensitive (10-fold lower IC50) than the median of the other 9 cell lines", "setting": "[5]; qHTS cytotoxicity, ref Huang et al., 2008, Xia et al., 2008", "result": "HEK293 ([Huang et al., 2008], [Xia et al., 2008])"}, {"measurement": "increase of Caspase 3/7 activity in dLUHMES", "setting": "[6]", "result": "but not dLUHMES"}]}, {"compound": "C[C@H]1O[C@@H](O[C@H]2[C@@H](O)C[C@H](O[C@H]3[C@@H](O)C[C@H](O[C@H]4CC[C@@]5(C)[C@H](CC[C@@H]6[C@@H]5C[C@@H](O)[C@]5(C)[C@@H](C7=CC(=O)OC7)CC[C@]65O)C4)O[C@@H]3C)O[C@@H]2C)C[C@H](O)[C@@H]1O", "note": "[DGX, Digoxin]", "values": [{"measurement": "cytotoxic sensitivity ([ATP] IC50) of LUHMES and/or dLUHMES relative to the other cell lines", "setting": "[4]", "result": "more sensitive than the other cell lines"}]}, {"compound": "CC[C@]1(O)C[C@H]2CN(CCc3c([nH]c4ccccc34)[C@@](C(=O)OC)(c3cc4c(cc3OC)N(C=O)[C@H]3[C@@](O)(C(=O)OC)[C@H](OC(C)=O)[C@]5(CC)C=CCN6CC[C@]43[C@@H]65)C2)C1", "note": "[VIN, Vincristine sulfate]", "values": [{"measurement": "cytotoxic sensitivity ([ATP] IC50) of LUHMES and/or dLUHMES relative to the other cell lines", "setting": "[4]", "result": "more sensitive than the other cell lines"}]}]}
